The source of these data is paper PMC9046208, “Foldamers reveal and validate therapeutic targets associated with toxic α-synuclein self-assembly” (Nature Communications, 2022).

The target of one assay is T1, αS oligomers (Homo sapiens, UniProt P37840).
T1 construct: made in house; host or cells: Escherichia coli BL21(DE3), periplasm
Kind of assay: Gel shift assay of αS supernatant (oligomers). The class given is biochemical. The following applies: 70 µM αS, 0.1, 0.2, 0.5 mol eq. ligand, 7 days. As for the experimental part:
Supplementary Fig. 8. Gel-shift images of αS (70 µM) incubated in the absence (lane 2) and presence of SK-129 (a) and EGCG (b) at sub-stoichiometric ratios (0.1, 0.2, 0.5 mol eq.) for 7 days at 370C with constant shaking. The solutions of αS in the absence and presence of ligands were centrifuged and the supernatant was used for the gel shift assay. The arrows indicate the formation of various αS structures. The gel shift assay of the supernatant of the αS aggregated […]
fibers. Most of the αS was found in the supernatant as a mo nomer and a dimer in the presence of […]
their formation. The gel experiments were conducted at least two times to confirm the reproducibility of the data.
(1 picture or pasted object on this page, not shown here)
Background: Mobility shift assays separate free from complexed probe on a gel.

The target of another assay is T2, αS2 (Homo sapiens, UniProt P37840, DEL15-23).
T2 construct: made in house
The assay can be described thus: Fluorescence polarization titration, SK-129F with αS2. The note with it: FP. The class given is binding. As for the experimental part:
(§1) All Fluorescence Polarization (FP) experiments were conducted on a Varian Cary Eclipse fluorometer (Agilent, Santa Clara, CA) equipped with a polarizer. The stock solutions of αS, 1 mM or 100 μM in 1x PBS buffer, were serially added into a solution of 10 μM SK-129F (300 μL in 1x PBS buffer) while stirring in a quartz cuvette (Fireflysci, Staten Island, NY). All FP measurements were conducted in triplicates in 20 mM Tris, 100 mM NaCl, pH 7.2 at 20 °C. The excitation and emissions wavelengths were set at 490 nm and 520 nm, respectively. Each titration was equilibrated for five min before measurements were taken for the next addition of αS solution. The addition of αS solution was continuous until no more change in the FP signal was observed. Similar conditions were used for the titration of various αS mutants and Aβ42 peptide against SK-129F. A stock solution of Aβ42 (1 mM or 100 μM in 1x PBS buffer on ice) was sequentially added to a solution of 10 μM SK-129F (300 μL in 1x PBS buffer) until no more change in the FP signal was observed. The polarization of each point was calculated using Eq. 1:1 FP=I∥−I⊥/I∥+I⊥ Where I∥ is fluorescence intensity parallel to the excitation plane and I⊥ is fluorescence intensity perpendicular to the excitation plane. […]
For orientation: Polarisation of emitted light reports the rotation of a fluorescent probe.

The target of another assay is T3, αS3 (Homo sapiens, UniProt P37840, DEL36-45).
T3 construct: Synuclein Residues (1-140); made in house
The assay can be described thus: Fluorescence polarization titration, SK-129F with αS3. Format: binding. The following applies: FP. The procedure:
as §1

The target in the next assay is T4, αS1 (Homo sapiens, UniProt P37840, DEL6-12).
T4 construct: made in house; host or cells: Escherichia coli BL21(DE3), periplasm
Kind of assay: Fluorescence polarization titration, SK-129F with αS1. Format: binding. The note with it: FP. As for the experimental part: as §1

The next assay relates to αS4. Kind of assay: Fluorescence polarization titration, SK-129F with αS4. Format: binding. The note with it: FP. The procedure: as §1
The target in a further assay is T5, αS (Homo sapiens, UniProt P37840).
T5 construct: made in house; host or cells: Escherichia coli BL21(DE3), periplasm
The assay can be described thus: Fluorescence polarization titration, SK-129F with WT αS. The class given is binding. The procedure: All Fluorescence Polarization (FP) experiments were conducted on a Varian Cary Eclipse fluorometer (Agilent, Santa Clara, CA) equipped with a polarizer. The stock solutions of αS, 1 mM or 100 μM in 1x PBS buffer, were serially added into a solution of 10 μM SK-129F (300 μL in 1x PBS buffer) while stirring in a quartz cuvette (Fireflysci, Staten Island, NY). All FP measurements were conducted in triplicates in 20 mM Tris, 100 mM NaCl, pH 7.2 at 20 °C. The excitation and emissions wavelengths were set at 490 nm and 520 nm, respectively. Each titration was equilibrated for five min before measurements were taken for the next addition of αS solution. The addition of αS solution was continuous until no more change in the FP signal was observed. Similar conditions were used for the titration of various αS mutants and Aβ42 peptide against SK-129F. A stock solution of Aβ42 (1 mM or 100 μM in 1x PBS buffer on ice) was sequentially added to a solution of 10 μM SK-129F (300 μL in 1x PBS buffer) until no more change in the FP signal was observed. The polarization of each point was calculated using Eq. 1:1 FP=I∥−I⊥/I∥+I⊥ Where I∥ is fluorescence intensity parallel to the excitation plane and I⊥ is fluorescence intensity perpendicular to the excitation plane. The plot between the relative change in the FP signal against the concentration of the protein (αS/ Aβ42) was fit using one site binding model and Kd between SK-129F and αS (αS mutants/Aβ42) was extracted from the fit. For displacement titration, a 10 μM SK-129F solution was saturated with 10 mole equivalents of αS (300 μL in 1x PBS buffer). To this solution, a stock solution of SK-129 (1 mM or 10 mM) was serially added to displace SK-129F from the αS-SK-129F complex. The solution of SK-129 was continuously added until no more change in the FP signal was observed. A plot between the relative change in the FP signal against the concentration of SK-129 was fit using a one-site competitive binding model and Kd between SK-129 and αS was extracted from the fit.

“Also recorded” adds a separate entry of the source. Where only a bound is given, the exact number is not on record here.

For `O=C(O[C@@H]1Cc2c(O)cc(O)cc2O[C@@H]1c1cc(O)c(O)c(O)c1)c1cc(O)c(O)c(O)c1` [EGCG, Epigallocatechin Gallate], the “αS species in gel shift assay” value on αS oligomers is reported as “higher-order toxic oligomers; also recorded: higher-order oligomers were observed”.
The Kd is the concentration at which binding is half-saturated. A high value points to weaker binding. For `COC(=O)c1cc(OCC(=O)O)c2cccc(NC(=O)c3cc(OC(C)C)c4cccc(NC(=O)c5cc(OCC(=O)O)c6cccc(NC(=O)c7cc(OC(C)C)c8cccc(NC(=S)NCC(=O)Nc9ccc(-c%10c%11ccc(=O)cc-%11oc%11cc(O)ccc%10%11)c(C(=O)O)c9)c8n7)c6n5)c4n3)c2n1` [SK-129F], the “binding affinity weaker than WT αS” value was 3–4 fold on αS2, ~ 8 fold at αS3, 3–4 fold at αS1 and over 10 fold with αS4. Moreover, the dissociation constant (Kd) at αS (FP fit, WT αS, trial 1) was determined as 864 nM; at αS (FP fit, WT αS, trial 2) it was 791 nM; at αS (FP fit, WT αS, trial 3), 758 nM; at αS (FP titration, 10 μM SK-129F with αS, mean ± s.d., n = 3), 810 ± 90 nM.
